Columns and labels:
[1] = system: fully kindled (stage 5) seizures, amygdala kindled rat; test: Amygdala kindled rat model; assay type: in vivo; conditions: <60 mg/kg i.p.
Source text: Amygdala kindling model is an animal model for complex partial seizures, which is the most common type of epilepsy in adults and is often drug resistant.

[2] = system: maximal electroshock seizure; test: Maximal Electroshock Seizure (MES) rat model; assay type: in vivo; conditions: po, 0.5 hour
Procedure: Male, Sprague-Dawley rats and CD-1 mice were used for all studies. All animals were allowed ad-lib access to food and water except during experiment. Animals were housed within an animal vivarium maintained under a 12 h light:dark cycle (lights on: 07:00 h), and all experiments were conducted in the animals light phase. For all experiments, animals were habituated to the vivarium for a minimum of 72 h before experimentation. The experimental procedures used in the present investigation were conducted under the Association for Assessment and Accreditation of Laboratory Animal Care (AAALAC) and the Canadian Council on Animal Care (CCAC) guidelines. All compounds were sonicated in 5% Tween 80® in saline or methylcellulose 0.5% (wgt/vol), using MC and sterile water and injected in a dose volume of 5 ml/kg or 10 ml/kg (rat), and 10 ml/kg (mouse). Drugs were administered by either the oral, intraperitoneal or intravenous route. Male Sprague-Dawley rats of body weight 80-100 g were used for these studies. Each experiment was conducted over 3 consecutive days. On day 1 and 2, each rat received a single electrical stimulus (150 mA, 0.2 s duration, 60 Hz) via corneal electrodes moistened with saline (Shock stimulator type 221: Harvard apparatus). […] Typically this reflected approximately 70-90% of the initial group. […] On the test day following a defined drug pretreatment period, rats received a maximal electroshock (150 mA, 0.2 s duration, 60 Hz) via corneal electrodes. Protection was defined as absence of a full tonic seizure within 10 s of stimulus delivery. Twenty minutes before the MES procedure, the animals were tested on a fixed speed rotorod (best score from 3 trials at 8 r.p.m, trial duration=60 s) to give an early assessment of drug effect on gross motor function.

[3] = system: gross motor function; test: Fixed speed rotorod, rat (gross motor function); conditions: Sprague-Dawley, in vivo, po
Procedure: On the test day following a defined drug pretreatment period, rats received a maximal electroshock (150 mA, 0.2 s duration, 60 Hz) via corneal electrodes. Protection was defined as absence of a full tonic seizure within 10 s of stimulus delivery. Twenty minutes before the MES procedure, the animals were tested on a fixed speed rotorod (best score from 3 trials at 8 r.p.m, trial duration=60 s) to give an early assessment of drug effect on gross motor function.

[4] = system: 6 Hz psychomotor seizure; test: Mouse 6 Hz model; assay type: in vivo; conditions: mice, ip, 0.5 hour, 32 mA
Procedure: Male, Sprague-Dawley rats and CD-1 mice were used for all studies. All animals were allowed ad-lib access to food and water except during experiment. Animals were housed within an animal vivarium maintained under a 12 h light:dark cycle (lights on: 07:00 h), and all experiments were conducted in the animals light phase. For all experiments, animals were habituated to the vivarium for a minimum of 72 h before experimentation. The experimental procedures used in the present investigation were conducted under the Association for Assessment and Accreditation of Laboratory Animal Care (AAALAC) and the Canadian Council on Animal Care (CCAC) guidelines. All compounds were sonicated in 5% Tween 80® in saline or methylcellulose 0.5% (wgt/vol), using MC and sterile water and injected in a dose volume of 5 ml/kg or 10 ml/kg (rat), and 10 ml/kg (mouse). Drugs were administered by either the oral, intraperitoneal or intravenous route. […] Preliminary experiments established that these stimulus parameters elicited a psychomotor seizure, defined as the expression of at least one of the following behaviors: stun/immobility, forelimb clonus, straub tail, vibrissae tremor, lateral head movement in >95% of control animals. Protection was defined as complete absence of all the above behaviors within 20 s of stimulus delivery. The effective dose of compound necessary to protect against psychomotor seizures to 50% of controls (i.e. ED50) was determined by curve fitting program (Prism v.4.02).

[5] = system: gross motor function; test: Rotorod, mouse (Table 8); conditions: in vivo, po, Table 8, mouse

| SMILES | suppression of fully kindled (stage 5) seizures compared to vehicle controls [1] | ED50 [2] | ED50 at 0.5 hour [3] | ED50 [4] | ED50 at 0.5 hour [5] |
| --- | --- | --- | --- | --- | --- |
| NC(=O)C(F)(F)Oc1cc(Cl)cc(C(F)(F)F)c1 [Compound I(E), 2-[3-chloro-5-(trifluoromethyl)-phenoxy]-2,2-difluoro-acetamide] | dose related suppression | – | – | – | – |
| CN(CC(N)=O)c1cc(C(F)(F)F)cc(C(F)(F)F)c1 [I(A), 2-[(3,5-Bis-trifluoromethyl-phenyl)-methyl-amino]-acetamide] | – | 48 ± 1.1 mg/kg | > 500 mg/kg | 62.5 ± 1 mg/kg | > 160 mg/kg |

— US10604476B2, “Fluorinated amide derivatives and their uses as therapeutic agents” (Trillium Therapeutics Inc., priority 2015, dated 2020)
